Reference: PMC8501045, “Addressing MRSA infection and antibacterial resistance with peptoid polymers” (Nature Communications, 2021)
Several values for one entry are separate records, joined by “and”; a condition that tells them apart may be missing. Equal entries are not always repeated.

Tests used:
S. aureus ATCC6538 = test: Bacterial killing kinetics; assay type: cell-based, Staphylococcus aureus; details: after 4 h of treatment
[1] = tested on: S. aureus USA300 biofilm formation; test: Inhibition study on biofilm formation; assay type: cell-based, Staphylococcus aureus
Procedure: The plate was incubated at 37 °C for 24 h, and then the culture medium was removed, washed with PBS once, followed by adding 100 µL MTT solution (0.5 mg/mL) into the corresponding well. After further incubation at 37 °C for 4 h in the dark, the MTT solution was removed. An aliquot of 100 μL DMSO was added to each well to solubilize the purple solid and then the OD value was collected at 570 nm on a microplate reader. Wells containing inoculum and without antibacterial agents were used as the positive control; wells containing only MH medium were used as the blank. The percentage of surviving cells within biofilm was calculated from4 %cellviability=A570polymer-A570blank/A570control-A570blank×100
(§1) The test was independently repeated at least three times.

[2] = tested on: S. aureus USA300 mature biofilm; test: Activity against mature biofilm; assay type: cell-based, Staphylococcus aureus; details: for Biofilm survival(%): vancomycin, r4-r9 = 32, 64, 128, 256, 512, 1024 MIC
Procedure: The plate was incubated at 37 °C for 24 h to allow biofilm formation. […] Then MTT assay was used to determine the biofilm viability. Wells containing inoculum and without antibacterial agents were used as the positive control; wells containing only MH medium were used as the blank. The percentage of surviving cells within biofilm was calculated from5 %cellviability=A570polymer-A570blank/A570control-A570blank×100
as §1

S. epidermidis 9397 = test: Mouse peritonitis model, survival test, S. epidermidis; assay type: in vivo; details: i.p. 20 mg/kg, 7 days
Procedure: This infection model was conducted according to the previously reported method with slight modification. Female ICR mice (21–24 g) were used for MRSA-infected peritonitis model. Mice were infected by intraperitoneal administration of 0.2 mL of S. aureus USA300 LAC in saline (7.5 × 10^8 CFU/mL) supplemented with 5% mucin. […] Once the infected mice died, peritoneal lavage was performed by injecting 3.0 mL of saline into the peritoneal cavity and massaging the abdomen. Subsequently, the abdomen was opened and peritoneal fluid was recovered from the abdominal cavity for analysis. Blood samples were collected through cardiac puncture for analysis of CFU/mL. Then, different organs including the heart, liver, spleen, lung, and kidney were removed and homogenized in 0.1% TX-100 solution. The homogenate was serially diluted for plating on LB agar. After incubation at 37 °C for 14 h, the number of colonies on the plate was counted to calculate the bacteria burden. Surviving mice were euthanized at 48 h after infection. The blood, peritoneal fluid, and organs were collected for the determination of bacterial colonies. […] For the pretreatment group, mice were sacrificed and tissues were harvested to determine the CFU at 1 h post infection. […]

S. aureus USA300 LAC = test: Mouse peritonitis model, CFU in organs, blood and IP fluid, MRSA; assay type: in vivo; details: Figure 6d
Procedure: This infection model was conducted according to the previously reported method with slight modification. Female ICR mice (21–24 g) were used for MRSA-infected peritonitis model. Mice were infected by intraperitoneal administration of 0.2 mL of S. aureus USA300 LAC in saline (7.5 × 10^8 CFU/mL) supplemented with 5% mucin. […] Once the infected mice died, peritoneal lavage was performed by injecting 3.0 mL of saline into the peritoneal cavity and massaging the abdomen. Subsequently, the abdomen was opened and peritoneal fluid was recovered from the abdominal cavity for analysis. Blood samples were collected through cardiac puncture for analysis of CFU/mL. Then, different organs including the heart, liver, spleen, lung, and kidney were removed and homogenized in 0.1% TX-100 solution. The homogenate was serially diluted for plating on LB agar. After incubation at 37 °C for 14 h, the number of colonies on the plate was counted to calculate the bacteria burden. Surviving mice were euthanized at 48 h after infection. The blood, peritoneal fluid, and organs were collected for the determination of bacterial colonies. […] For the pretreatment group, mice were sacrificed and tissues were harvested to determine the CFU at 1 h post infection.

How did the “reduction of the bacteria” value (S. aureus ATCC6538) turn out when `CN[C@H](CC(C)C)C(=O)N[C@H]1C(=O)N[C@@H](CC(N)=O)C(=O)N[C@H]2C(=O)N[C@H]3C(=O)N[C@H](C(=O)N[C@H](C(=O)O)c4cc(O)cc(O)c4-c4cc3ccc4O)[C@H](O)c3ccc(c(Cl)c3)Oc3cc2cc(c3O[C@@H]2O[C@H](CO)[C@@H](O)[C@H](O)[C@H]2O[C@H]2C[C@](C)(N)[C@H](O)[C@H](C)O2)Oc2ccc(cc2Cl)[C@H]1O` [Vancomycin] was run?
Its value is “about 0.3 log”.

And the “concentration required to inhibit the formation of S. aureus biofilm” value [1]?
The value was 2 × MIC.

What about the “concentration that eradicates mature biofilms of S. aureus” value [2] of the same compound?
The value was greater than 1024 × MIC.

And the “Biofilm survival(%)” value ([2]; replicate 1)?
The value was 57.1927% and 41.3774% and 45.7038% and 29.4643% and 29.3131% and 28.1882%.

What about the “Biofilm survival(%)” value ([2]; replicate 2) of the same compound?
The value was 57.8677% and 50.7936% and 39.7472% and 30.2942% and 28.1255% and 26.0416%.

And the mice survived (S. epidermidis 9397)?
The mice survived was 4/6.

And the “Log10(CFU/mL IP fluid)” value (S. aureus USA300 LAC; individual mouse 1 of 6)?
Its value is 3.724 Log10(CFU/mL).

And the “Log10(CFU/mL IP fluid)” value (S. aureus USA300 LAC; individual mouse 2 of 6)?
Its value is 3.912 Log10(CFU/mL).

What about the “Log10(CFU/mL IP fluid)” value (S. aureus USA300 LAC; individual mouse 3 of 6) of the same compound?
The value was 2.845 Log10(CFU/mL).

What about the “Log10(CFU/mL IP fluid)” value (S. aureus USA300 LAC; individual mouse 4 of 6) of the same compound?
The value was 3.255 Log10(CFU/mL).

What about the “Log10(CFU/mL IP fluid)” value (S. aureus USA300 LAC; individual mouse 5 of 6) of the same compound?
The value was 3.595 Log10(CFU/mL).

And the “Log10(CFU/mL IP fluid)” value (S. aureus USA300 LAC; individual mouse 6 of 6)?
The value was 1.824 Log10(CFU/mL).

And the “Log10(CFU/mL Blood)” value (S. aureus USA300 LAC; individual mouse 1 of 6)?
The value was 1.824 Log10(CFU/mL).

What about the “Log10(CFU/mL Blood)” value (S. aureus USA300 LAC; individual mouse 2 of 6) of the same compound?
Its value is 3.213 Log10(CFU/mL).

What about the “Log10(CFU/mL Blood)” value (S. aureus USA300 LAC; individual mouse 3 of 6) of the same compound?
Its value is 3.885 Log10(CFU/mL).

What about the “Log10(CFU/mL Blood)” value (S. aureus USA300 LAC; individual mouse 4 of 6) of the same compound?
Its value is 1.523 Log10(CFU/mL).

And the “Log10(CFU/mL Blood)” value (S. aureus USA300 LAC; individual mouse 5 of 6)?
The value was 2.222 Log10(CFU/mL).

What about the “Log10(CFU/mL Blood)” value (S. aureus USA300 LAC; individual mouse 6 of 6) of the same compound?
Its value is 0 Log10(CFU/mL).

What about the “Log10(CFU/g Heart)” value (S. aureus USA300 LAC; individual mouse 1 of 6) of the same compound?
Its value is 0 Log10(CFU/g).

What about the “Log10(CFU/g Heart)” value (S. aureus USA300 LAC; individual mouse 2 of 6) of the same compound?
Its value is 2.523 Log10(CFU/g).

And the “Log10(CFU/g Heart)” value (S. aureus USA300 LAC; individual mouse 3 of 6)?
Its value is 2.824 Log10(CFU/g).

And the “Log10(CFU/g Heart)” value (S. aureus USA300 LAC; individual mouse 4 of 6)?
Its value is 2.824 Log10(CFU/g).

What about the “Log10(CFU/g Heart)” value (S. aureus USA300 LAC; individual mouse 5 of 6) of the same compound?
The value was 3 Log10(CFU/g).

What about the “Log10(CFU/g Heart)” value (S. aureus USA300 LAC; individual mouse 6 of 6) of the same compound?
The value was 0 Log10(CFU/g).

What about the “Log10(CFU/g Kidney)” value (S. aureus USA300 LAC; individual mouse 1 of 6) of the same compound?
The value was 3.222 Log10(CFU/g).

And the “Log10(CFU/g Kidney)” value (S. aureus USA300 LAC; individual mouse 2 of 6)?
Its value is 4.951 Log10(CFU/g).

What about the “Log10(CFU/g Kidney)” value (S. aureus USA300 LAC; individual mouse 3 of 6) of the same compound?
The value was 4.845 Log10(CFU/g).

And the “Log10(CFU/g Kidney)” value (S. aureus USA300 LAC; individual mouse 4 of 6)?
Its value is 2.824 Log10(CFU/g).

What about the “Log10(CFU/g Kidney)” value (S. aureus USA300 LAC; individual mouse 5 of 6) of the same compound?
The value was 2.523 Log10(CFU/g).

And the “Log10(CFU/g Kidney)” value (S. aureus USA300 LAC; individual mouse 6 of 6)?
The value was 4.247 Log10(CFU/g).

What about the “Log10(CFU/g Liver)” value (S. aureus USA300 LAC; individual mouse 1 of 6) of the same compound?
Its value is 3.125 Log10(CFU/g).

What about the “Log10(CFU/g Liver)” value (S. aureus USA300 LAC; individual mouse 2 of 6) of the same compound?
The value was 4.501 Log10(CFU/g).

And the “Log10(CFU/g Liver)” value (S. aureus USA300 LAC; individual mouse 3 of 6)?
The value was 3.477 Log10(CFU/g).

And the “Log10(CFU/g Liver)” value (S. aureus USA300 LAC; individual mouse 4 of 6)?
Its value is 4.398 Log10(CFU/g).

And the “Log10(CFU/g Liver)” value (S. aureus USA300 LAC; individual mouse 5 of 6)?
Its value is 3.699 Log10(CFU/g).

What about the “Log10(CFU/g Liver)” value (S. aureus USA300 LAC; individual mouse 6 of 6) of the same compound?
The value was 3.699 Log10(CFU/g).

And the “Log10(CFU/g Lung)” value (S. aureus USA300 LAC; individual mouse 2 of 6)?
The value was 4.23 Log10(CFU/g).

And the “Log10(CFU/g Lung)” value (S. aureus USA300 LAC; individual mouse 3 of 6)?
The value was 3.125 Log10(CFU/g).

And the “Log10(CFU/g Lung)” value (S. aureus USA300 LAC; individual mouse 5 of 6)?
The value was 3 Log10(CFU/g).

And the “Log10(CFU/g Lung)” value (S. aureus USA300 LAC; individual mouse 6 of 6)?
Its value is 3 Log10(CFU/g).

What about the “Log10(CFU/g Spleen)” value (S. aureus USA300 LAC; individual mouse 1 of 6) of the same compound?
The value was 3.426 Log10(CFU/g).

And the “Log10(CFU/g Spleen)” value (S. aureus USA300 LAC; individual mouse 2 of 6)?
Its value is 4.689 Log10(CFU/g).

What about the “Log10(CFU/g Spleen)” value (S. aureus USA300 LAC; individual mouse 3 of 6) of the same compound?
Its value is 3.885 Log10(CFU/g).

And the “Log10(CFU/g Spleen)” value (S. aureus USA300 LAC; individual mouse 4 of 6)?
The value was 4.404 Log10(CFU/g).
